Experiments:
[1] = test system: primary cultures of differentiated CF airway epithelia; assay: pHASL measurement (SNARF-1-dextran) in primary CF airway epithelia; format: cell-based, human
Source text: (§1) Cell culture. Primary cultures of differentiated airway epithelia were obtained without passage from multiple human donors as previously reported (37). Briefly, proximal bronchi were dissected, cut into small pieces, and enzymatically digested. Epithelial cells were isolated and seeded onto collagen-coated inserts (Costar, 3470; Falcon, 353180). Epithelia were differentiated at the air liquid interface for 3 weeks or more prior to assay. During the course of this study, new CF lung donors became scarce, partly due to more individuals taking highly-active CFTR modulators. To manage this situation, epithelial cells from previous CF donors cryopreserved at PO were thawed and differentiated. Whenever feasible, studies followed a paired design so that epithelia from the same donor were assayed under control and treatment conditions.
(§2) pHASL measurement. pHASL was measured using a fluorescent ratiometric pH indicator, SNARF-1, conjugated to 70 kD dextran (Thermo Fisher Scientific). SNARF-1-dextran was delivered as a powder to the apical side and allowed to distribute into ASL for 1 hour. Imaging was performed on a laser-scanning confocal microscope (Zeiss LSM 880). SNARF-1 was excited at 514 nm, and emissions at 580 nm and 640 nm were recorded. The ratio of fluorescence intensities (580/640) was obtained to calculate pH values using calibration curves constructed from colorless standard pH solutions. The microscope chamber housing epithelia maintained a humidified environment at 37° C. 5% CO2 was added to the chamber environment whenever the basolateral side was immersed in a HCO3^− containing buffer solution, but removed when a HCO3^−-free (HEPES) buffer solution was used.

S. aureus = S. aureus killing assay (ASL antimicrobial activity, bacteria-coated grids); format: cell-based; settings: primary CF epithelia; WNK463 10 μM, 2 hours
Experimental: S. aureus killing assay. ASL antimicrobial activity was assessed using bacteria-coated grids. Preparation, imaging, and quantification were performed as previously described (13). Briefly, S. aureus isolate SA-CL37 was grown to log-phase, labeled with biotin, and conjugated to streptavidin-coated gold electron microscopy grids. The grids were placed on the apical side of airway epithelia in direct contact with ASL. After incubating for 15 minutes in humidified, 5% CO2 chambers at 37° C., the grids were retrieved, rinsed with PBS, and immersed in SYTO9 and propidium iodide to determine bacterial viability (Live/Dead Bacterial Viability Assay, Invitrogen). The grids were washed, fixed with 4% paraformaldehyde, and imaged on the Olympus Fluoview FV 3000 confocal microscope. Images were analyzed for numbers of live and dead bacteria using the ImageJ software. For each grid, three separate regions were imaged. Two grids were assessed per epithelium and the results averaged to obtain % S. aureus killing.

CaCC = assay: Ussing chamber, response to apical DIDS in CF epithelia; format: cell-based, human; settings: WNK463 10 μM, 2 hours, after amiloride and UTP
Experimental: (§3) Electrophysiologic studies. Airway epithelia were mounted in modified Ussing chambers (Physiologic Instruments) and bathed in symmetric Krebs buffer solution. The standard Krebs buffer contained (in mM): 118.9 NaCl, 25 NaHCO3, 2.4 K2HPO4, 0.6 KH2PO4, 1.2 MgCl2, 1.2 CaCl2), and 5 dextrose at 37° C., adjusted to pH 7.4 in the presence of 5% CO2. The HCO3^−-free solution contained (in mM): 135 NaCl, 2.4 K2HPO4, 0.6 KH2PO4, 1.2 MgCl2, 1.2 CaCl2), 5 HEPES, and 5 dextrose at 37° C., adjusted to pH 7.4 in nominally C02^−free environment. The Cl^−-free solution contained (in mM): 118.9 Na gluconate, 25 NaHCO3, 2.4 K2HPO4, 0.6 KH2PO4, 5 Ca gluconate, 1 Mg gluconate, 5 dextrose, at 37° C. and adjusted to pH 7.4 in the presence of 5% C02. Epithelia were voltage clamped, followed by recording of the short-circuit current (ISC) and transepithelial conductance (Gt). Exposure to either vehicle (DMSO) or WNK463 was continued during recording. The following agents were added apically (in μM): 100 amiloride, 20 uridine triphosphate (UTP), 100 4,4′-diisothiocyano-2,2′-stilbenedisulfonic acid (DIDS), 10 forskolin, and 10 CFTRinh-172. In some experiments, 100 μM bumetanide was also added to the serosal chambers.
CF epithelia lack functional CFTR channels, but express CaCC. […] Next, we added DIDS, a non-specific CaCC inhibitor, and recorded the change in ISC and Gt.

CFTR = assay: Ussing chamber, response to CFTRinh-172 in non-CF epithelia; format: cell-based, human; settings: WNK463 10 μM
Experimental: as §3
WNK463 reduces electrogenic Cl^− secretion. CFTR is the main route for anion exit across the apical membrane of airway epithelia. Whether WNK inhibition alters CFTR activity in airway epithelia is not well-established. To test, we exposed non-CF epithelia to WNK463 for 2 hours, and assayed in Ussing chambers containing symmetric Krebs solution (118 mM Cl^− and 25 mM HCO3^−, gassed with 5% CO2). After clamping transepithelial voltage, we recorded ISC and Gt, and elicited responses to selective channel inhibitors or activators (FIGS. 5A and 5B). We added amiloride followed by DIDS to abolish ENaC-mediated Na^+ absorption and Ca^2+-activated Cl^− channel (CaCC)-mediated anion secretion, respectively. Next, we added forskolin to increase cellular cAMP and thereby phosphorylate and activate CFTR channels. We concluded with CFTRinh-172, an inhibitor of CFTR. We assessed the response to CFTRinh-172 and used it to estimate CFTR channel activity. WNK463 reduced ΔISC-CFTR by ˜ 50% (FIG. 5C).

primary CF epithelia [2] = assay: ASL viscosity measurement (FRAP); format: cell-based, human; settings: WNK463 10 μM, 2 hours
Experimental: ASL viscosity measurement. ASL viscosity was measured using the fluorescence recovery after photobleaching (FRAP) method as previously reported (12). Briefly, powdered FITC-dextran (70 kD, Sigma) was delivered to the apical side of airway epithelia, and allowed to equilibrate for 2 hours. Epithelia were moved to a humidified chamber on the Zeiss LSM 880 confocal microscope. The chamber maintained a temperature of 37° C. and an atmosphere of 5% CO2. After baseline imaging, a small region of interest was photobleached. Time series fluorescence recovery images were collected until maximal recovery was reached. For each epithelium, 4-5 curves from different locations were obtained and averaged. The time constant (T) was calculated from the fluorescence recovery curves using regression, and expressed as ASL value normalized to saline (τASL/τsaline).

NKCC1 [3] = assay: Ussing chamber, bumetanide-sensitive ISC in CF epithelia; format: cell-based, human; settings: WNK463 10 μM, 2 hours, amiloride, UTP, then basolateral bumetanide
Experimental: as §3
(§4) Reducing basolateral Cl^−-entry increases CF pHASL. […] To estimate the contribution of NKCC1, we added basolateral bumetanide, and measured ΔISC. […]

[4] = test system: primary cultures of non-CF epithelia; assay: pHASL measurement (SNARF-1-dextran) in primary non-CF airway epithelia; format: cell-based, human; settings: WNK463 10 μM, 2 hours, 25 mM HCO3− and 5% CO2
Source text: as §1
pHASL measurement. pHASL was measured using a fluorescent ratiometric pH indicator, SNARF-1, conjugated to 70 kD dextran (Thermo Fisher Scientific). SNARF-1-dextran was delivered as a powder to the apical side and allowed to distribute into ASL for 1 hour. […] SNARF-1 was excited at 514 nm, and emissions at 580 nm and 640 nm were recorded. The ratio of fluorescence intensities (580/640) was obtained to calculate pH values using calibration curves constructed from colorless standard pH solutions. […]

primary CF epithelia [5] = assay: Ciliary beat frequency measurement; format: cell-based, human; settings: WNK463 10 μM, 2 hours
Experimental: Ciliary beat frequency measurement. Phase contrast videos of ciliary motion were obtained using the Zeiss Axio Observer microscope at 50 frames per second at room temperature. A total of 256 frames (5.1 second videos) were obtained for each field. A minimum of five random fields per culture were selected. Whole field gaussian mean ciliary beat frequencies (CBF) were analyzed using the Sisson-Ammons video analysis software (SAVA; Ammons Engineering, Mt. Morris, MI) (41).

[6] = test system: TNFα/IL-17-treated CF epithelia; assay: pHASL measurement in TNFα/IL-17-treated CF epithelia; format: cell-based, human; settings: CF epithelia treated with TNFα 10 ng/ml and IL-17 20 ng/ml for 48 hours, 2 hours
Experimental: To assess cytokine-induced responses, epithelia were treated with a combination of 10 ng/ml TNFα (R&D Systems) and 20 ng/ml IL-17 (R&D Systems). Both cytokines were added to the basolateral media for 48 hours prior to assessments. All studies were approved by the University of Iowa Institutional Review Board.
as §2

[7] = rat model of hypertension; cited from earlier work
NKCC1 [8] = assay: Ussing chamber, bumetanide-sensitive ISC in non-CF epithelia; format: cell-based, human; settings: WNK463 10 μM, 2 hours, amiloride, forskolin, then basolateral bumetanide
Experimental: as §3, §4

primary CF epithelia [9] = assay: Liquid absorption assay; format: cell-based, human; settings: WNK463 10 μM, 4 hours
Experimental: Liquid absorption assay. Liquid absorption was measured using a previously reported method (40). Briefly, airway epithelia were transferred to 500 μl of fresh basolateral solution containing either vehicle or 10 μM WNK463. The apical side was suctioned dry and 30 μl of Krebs buffer solution was introduced. Of note, the apical solution had the same ionic composition, osmolality, and pH as the basolateral solution. After 4 hours, the apical liquid was collected with micropipettes (Drummond Microcaps #1-000-1000) and the height of the liquid column was recorded. Volume of liquid was calculated as the product of height and micropipette cross-sectional area. The difference between the original and 4-hour liquid volumes was used to calculate the rate of absorption (μl·cm^−2·h^−1).

airway epithelia = settings: previous studies in airway epithelia; cited from earlier work
[10] = 2 hours, symmetric Krebs solution with Cl− and HCO3−

O=C(Nc1ccc(Oc2ccc(Cl)cc2)c(Cl)c1)c1cc(I)cc(I)c1O [rafoxanide, Rafoxanide]
pHASL ([1]; primary CF epithelia, rafoxanide applied for 2 hours): increased

CC(C)(C)NC(=O)c1cncn1C1CCN(c2ccc(-c3nnc(C(F)(F)F)o3)cn2)CC1 [WNK463]
ASL-mediated S. aureus killing (S. aureus): increased | DIDS-sensitive ΔGt (CaCC): slightly increased | DIDS-sensitive ΔISC (CaCC): decreased | ΔISC-CFTR (CFTR; Cl−-free solution): remained unchanged | reduction of ΔISC-CFTR (CFTR; [10]): ~50% | ΔGt-CFTR (CFTR; [10]): remained unchanged | ΔISC-CFTR (CFTR; symmetric HCO3−-free solution): reduced | ASL viscosity (τASL/τsaline) (primary CF epithelia [2]): decreased | bumetanide-sensitive ISC (NKCC1 [3]): reduced | pHASL ([1]; CF epithelia, WNK463 10 μM, 2 hours, in the absence of basolateral Cl−): failed to alkalinize | pHASL ([1]; primary CF epithelia, WNK463 10 μM, 2 hours, 25 mM HCO3− and 5% CO2): increased | pHASL, time course ([1]; primary CF epithelia, continued exposure up to 24 hours versus 2 hours): did not further alkalinize | pHASL response ([1]; primary CF epithelia, nominally HCO3−/CO2-free environment (HEPES), WNK463 10 μM): disappeared | pHASL [4]: increased | ciliary beat frequency (primary CF epithelia [5]): increased | pHASL ([6]; WNK463 10 μM): further increased | adverse effects [7]: adverse effects | bumetanide-sensitive ISC (NKCC1 [8]): reduced | rate of apical liquid absorption (primary CF epithelia [9]): did not alter

CCCCNc1cc(C(=O)O)cc(S(N)(=O)=O)c1Oc1ccccc1 [bumetanide]
pHASL ([1]; CF epithelia, 2 hours after exposure to basolateral bumetanide): increased | pHASL ([6]; bumetanide 100 μM): further alkalinized | intracellular [Cl−] (airway epithelia): decreases
